Our source for the IC50 values is patent US11807646B2, “4-hydroxypiperidine derivatives and their use as inhibitors of ubiquitin specific protease 19 (USP19)” (ALMAC DISCOVERY LIMITED, priority 2018, dated 2023).

This test has as its target USP19 (Homo sapiens (Human), UniProt O94966). Nature of the test: USP19 fluorescence polarization (FP) homogeneous assay with Ubiquitin-Lys-TAMRA substrate. The format is biochemical. To be noted: full-length USP19 2.5 nM, Ub substrate 500 nM, 30 min pre-incubation at rt; average of at least two duplicate experiments. The procedure: Unless otherwise stated, all other reagents were purchased from Sigma. Enzymatic reactions were conducted in black flat bottom polystyrene 384-well plates (Nunc) and 30 μL total volume. […] Inhibitors were stored as 10 mM DMSO stocks in an inert environment (low humidity, dark, low oxygen, room temperature) using the Storage Pod System and serial dilutions were prepared in buffer just prior to the assay (from 200 μM to 2 pM, 8-18 data point curve). Following incubation at rt for 30 min, the enzymatic reactions were initiated by dispensing the Ub substrate (500 nM, 10 μL). FP was measured every 15 min over a period of 90 min (within the linear range of the assay) using a Synergy 4 plate reader (BioTek) exciting at 530 nm and measuring the amount of parallel and perpendicular light at 575 nm. The FP signal was subsequently normalized to the no compound control.

SMILES strings stand for the structures. pIC50: −log10 of the molar value.

Chain of USP19 (O94966 whole entry): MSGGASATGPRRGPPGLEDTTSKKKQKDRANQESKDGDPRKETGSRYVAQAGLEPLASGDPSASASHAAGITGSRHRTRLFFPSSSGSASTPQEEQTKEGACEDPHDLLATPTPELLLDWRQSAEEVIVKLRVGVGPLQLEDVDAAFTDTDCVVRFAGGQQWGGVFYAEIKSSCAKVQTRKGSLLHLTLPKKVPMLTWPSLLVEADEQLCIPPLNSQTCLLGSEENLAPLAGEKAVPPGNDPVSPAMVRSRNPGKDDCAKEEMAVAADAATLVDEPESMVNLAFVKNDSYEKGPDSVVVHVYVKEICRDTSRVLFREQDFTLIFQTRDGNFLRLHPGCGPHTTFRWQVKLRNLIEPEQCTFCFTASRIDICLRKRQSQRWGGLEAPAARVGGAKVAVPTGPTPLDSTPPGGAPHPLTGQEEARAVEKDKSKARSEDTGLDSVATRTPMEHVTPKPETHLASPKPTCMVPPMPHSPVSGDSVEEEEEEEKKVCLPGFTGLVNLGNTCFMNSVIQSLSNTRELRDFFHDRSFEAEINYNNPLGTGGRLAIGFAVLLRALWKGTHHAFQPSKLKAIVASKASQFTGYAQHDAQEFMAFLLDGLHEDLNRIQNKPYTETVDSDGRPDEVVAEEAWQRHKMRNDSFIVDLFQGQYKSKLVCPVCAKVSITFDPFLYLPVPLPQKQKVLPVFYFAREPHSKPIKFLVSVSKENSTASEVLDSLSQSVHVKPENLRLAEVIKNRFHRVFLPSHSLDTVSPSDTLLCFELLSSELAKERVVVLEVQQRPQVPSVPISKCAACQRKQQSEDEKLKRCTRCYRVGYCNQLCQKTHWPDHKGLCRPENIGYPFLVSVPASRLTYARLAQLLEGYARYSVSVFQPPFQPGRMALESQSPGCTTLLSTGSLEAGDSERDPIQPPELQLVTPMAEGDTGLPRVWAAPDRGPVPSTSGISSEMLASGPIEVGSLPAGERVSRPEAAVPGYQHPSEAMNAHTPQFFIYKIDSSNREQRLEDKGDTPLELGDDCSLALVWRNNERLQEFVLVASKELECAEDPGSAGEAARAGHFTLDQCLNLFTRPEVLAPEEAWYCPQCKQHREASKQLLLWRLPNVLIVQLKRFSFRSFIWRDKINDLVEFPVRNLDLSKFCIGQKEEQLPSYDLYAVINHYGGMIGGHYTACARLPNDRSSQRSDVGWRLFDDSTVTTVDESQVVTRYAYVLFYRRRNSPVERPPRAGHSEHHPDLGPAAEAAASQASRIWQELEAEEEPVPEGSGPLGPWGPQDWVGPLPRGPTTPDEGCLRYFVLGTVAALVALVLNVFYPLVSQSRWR

Take `CC(CC(=O)N1CCC(O)(CN2CC(Cc3ccccc3)CC2=O)C(C)(C)C1)c1ccccc1` (centres unmarked) [Example 44, 4-Benzyl-1-((4-hydroxy-3,3-dimethyl-1-(3-phenylbutanoyl)piperidin-4-yl)methyl)pyrrolidin-2-one]: the pIC50 is 3.60 to 4.30. Under `C[C@H](CC1CCCCC1)C(=O)N1CC[C@](O)(Cn2cc(N=S(C)(C)=O)c(-c3ccccc3F)cc2=O)C(C)(C)C1` [Example 65, 1-(((R)-1-((R)-3-Cyclohexyl-2-methylpropanoyl)-4-hydroxy-3,3-dimethylpiperidin-4-yl)methyl)-5-((dimethyl(oxo)-λ^6-sulfaneylidene)amino)-4-(2-fluorophenyl)pyridin-2(1H)-one] stands 3.60 to 4.30. Under `C[C@H](CC1CCCCC1)C(=O)N1CC[C@@](O)(Cn2cc(N=S(C)(C)=O)c(-c3ccccc3F)cc2=O)C(C)(C)C1` [Example 66, 1-(((S)-1-((R)-3-Cyclohexyl-2-methylpropanoyl)-4-hydroxy-3,3-dimethylpiperidin-4-yl)methyl)-5-((dimethyl(oxo)-λ^6-sulfaneylidene)amino)-4-(2-fluorophenyl)pyridin-2(1H)-one] stands 5.30 to 6.30; under `O=C1COCCN1CC1(O)CCN(C(=O)N2CCOC[C@H]2c2ccccc2)CC12CCCC2` (stereo partly drawn) [Example 117, 4-((10-Hydroxy-7-((R)-3-phenylmorpholine-4-carbonyl)-7-azaspiro[4.5]decan-10-yl)methyl)morpholin-3-one], 5.30 to 6.30.

`C[C@H](CC(F)(F)F)C(=O)N1CCC(O)(Cn2ccc3ccc(F)cc3c2=O)C2(CCCC2)C1` (stereo partly drawn) [Example 135, 7-Fluoro-2-((10-hydroxy-7-((R)-4,4,4-trifluoro-2-methylbutanoyl)-7-azaspiro[4.5]decan-10-yl)methyl)isoquinolin-1(2H)-one]: the negative logarithm of the IC50 (pIC50) is 4.30 to 5.30.
